Results on nine molecules are retold here after ChEMBL document CHEMBL1134884, “Novel indolo[2,1-b]quinazoline analogues as cytostatic agents: synthesis, biological evaluation and structure-activity relationship” (Bioorg Med Chem Lett, 2002).

The subject of one series is SW-620. Description: Tested for in vitro cytotoxic activity against colon SW620 human cancer cell lines. It is filed as functional.
Series [1] relates to Mus musculus. Briefly: Maximum mean weight loss on 24th day after administration of 40 mg/kg daily for 10 days(total 400 mg/kg). It is filed as functional.
The subject of the next series is NCI-H522. Description: Tested for in vitro cytotoxic activity against lung H522 human cancer cell lines. It is filed as functional.
The test system of another series is SK-OV-3. Briefly: Tested for in vitro cytotoxic activity against ovarian SKOV3 human cancer cell lines. It is filed as functional.
Series [2] is described as follows: Bioavailability (dose 20 mg/kg). It counts as ADME, organism-based. Conditions: eutheria, in vivo.
In the next series the test system is U-251. Description: Tested for in vitro cytotoxic activity against CNS U251 human cancer cell lines. It is filed as functional.
A further series has as its system A498. Briefly: Tested for in vitro cytotoxic activity against renal A498 human cancer cell lines. It counts as functional.
The test system of a further series is M14. Briefly: Tested for in vitro cytotoxic activity against melanoma M14 human cancer cell lines. It is filed as functional.
For a further series, the system named is NCI/ADR-RES. Description: Tested for in vitro cytotoxic activity against breast MCF-7/ADR human cancer cell lines. It is filed as functional.
Series [3] is filed under the species Mus musculus. Description: Antitumor activity after 24 days was determined. It is filed as functional.
The next series relates to DU-145. Briefly: Tested for in vitro cytotoxic activity against prostate DU145 human cancer cell lines. It counts as functional.
Series [4] concerns Mus musculus. Description: Maximum mean weight loss on 26th day after administration of 40 mg/kg daily for 10 days(total 400 mg/kg). It counts as functional.
For series [5], the species on record is Mus musculus. Description: Antitumor activity after 17 days was determined. It counts as functional.

A word on the GI50: it is the concentration at which growth is held to half of that of the control. Read a high GI50 as less potent growth inhibition. For orientation: bioavailability means dose-corrected exposure relative to a reference, in per cent. Lower therefore signals poor availability. As to `CN(C)CCO/N=C1\c2ccccc2-n2c1nc1ccccc1c2=O`, the concentration for 50% growth inhibition (GI50) with SW-620 stood at 0.75 µM; in the series on NCI-H522 it was 0.7 µM; in the series with SK-OV-3 it was 2 µM; in the series with U-251, 0.8 µM; with A498 it was 0.6 µM; in the series on M14, 2 µM. Besides, the figures for the GI50 in the series on NCI/ADR-RES and with DU-145 were 0.4 µM and 2.5 µM, respectively. For the same molecule, the “Max mean weight loss” value in the series with Mus musculus [1] amounted to 14%. Moreover, the bioavailability in series [2] was 14%. Also, the “Optimum T/C” value in the series listed under Mus musculus [3] is reported as 75%.
As for `CCC(=O)Nc1ccc2c(c1)C(=O)c1nc3ccccc3c(=O)n1-2`, the concentration for 50% growth inhibition (GI50) is 22 µM in the series with SW-620; 18 µM with NCI-H522; 8 µM in the series with SK-OV-3; over 100 µM with U-251; 7 µM in the series with A498; 10 µM in the series with M14. Further, the GI50 came out at 20 µM in the series with NCI/ADR-RES and 10 µM in the series on DU-145.
`O=C1c2ccccc2-n2c1nc1ccccc1c2=O` [TRYPTANTHRIN]: the 50% growth inhibitory concentration (GI50) came to 5 µM in the series with SW-620; 15 µM in the series on NCI-H522; 2.5 µM in the series on SK-OV-3; 100 µM in the series on U-251; 0.95 µM in the series on A498; 15 µM with M14. Moreover, the results for the GI50 with NCI/ADR-RES and with DU-145 were 30 µM and 0.4 µM, respectively.
Regarding `CCCC(=O)Nc1ccc2c(c1)C(=O)c1nc3ccccc3c(=O)n1-2`, the GI50 is 10.5 µM in the series on SW-620; 18.2 µM in the series on NCI-H522; 6 µM with SK-OV-3; 12 µM with U-251; 20 µM with A498; 18.5 µM with M14. Besides, the values for the concentration for 50% growth inhibition (GI50) in the series on NCI/ADR-RES and in the series on DU-145 were 10 µM and 20 µM, respectively.
As for `CN(C)CCCO/N=C1\c2cc([N+](=O)[O-])ccc2-n2c1nc1ccccc1c2=O`, the concentration for 50% growth inhibition (GI50) is 0.5 µM in the series with SW-620; 0.4 µM in the series on NCI-H522; 0.6 µM in the series with SK-OV-3; 2.5 µM in the series on U-251; 0.09 µM in the series on A498; 0.4 µM in the series with M14. Besides, the 50% growth inhibitory concentration (GI50) is 4 µM with NCI/ADR-RES and 2 µM in the series on DU-145. In addition, the “Max mean weight loss” value in the series with Mus musculus [4] was found to be 14%. In addition, the “Optimum T/C” value in the series filed under Mus musculus [5] is listed as 23%. Besides, in series [2], the bioavailability is 76%.
Regarding `O=c1c2ccccc2nc2n1-c1ccccc1C2(O)OCCOc1ccccc1` (stereo not drawn), the 50% growth inhibitory concentration (GI50) in the series with SW-620, in the series with NCI-H522, in the series on SK-OV-3, in the series on U-251, in the series with A498 and with M14 was over 100 µM throughout. Moreover, the GI50 with NCI/ADR-RES and with DU-145 was over 100 µM each time.
Consider `O=C1c2ccccc2-n2c1nc1ccc([N+](=O)[O-])cc1c2=O`, for which the GI50 in the series with SW-620, in the series on NCI-H522, in the series on SK-OV-3, in the series with U-251, in the series with A498 and with M14 was over 100 µM in each case. Further, the GI50 with NCI/ADR-RES and in the series with DU-145 was over 100 µM each time.
For the molecule `O=c1c2ccccc2nc2n1-c1ccccc1/C2=N\OCCN1CCCC1`, the 50% growth inhibitory concentration (GI50) with SW-620 was found to be 0.85 µM; in the series on NCI-H522 it was 3 µM; in the series on SK-OV-3 it was 3 µM; with U-251, 25 µM; in the series on A498, 5 µM; in the series on M14, 2 µM. Besides, the figures for the GI50 in the series on NCI/ADR-RES and with DU-145 were 6 µM and 3 µM, respectively.
Consider `COc1ccc2c(c1)C(=O)c1nc3ccccc3c(=O)n1-2`, for which the 50% growth inhibitory concentration (GI50) with SW-620, in the series with NCI-H522, with SK-OV-3, in the series on U-251, in the series on A498 and in the series with M14 was over 100 µM each time. Also, the GI50 in the series with NCI/ADR-RES and in the series with DU-145 was over 100 µM throughout.
